# Target: human PAD4 (hPAD4) (Homo sapiens (Human), UniProt Q9UM07)
# Assay: RFMS Human PAD4 Functional Assay
# Assay type: biochemical
# Details: rapid-fire mass spectrum (RFMS) assay; 5 nM hPAD4 enzyme, 250 μM BAEE, 30 min preincubation at 37° C.
# Chain of human PAD4 (hPAD4) (Q9UM07 whole entry): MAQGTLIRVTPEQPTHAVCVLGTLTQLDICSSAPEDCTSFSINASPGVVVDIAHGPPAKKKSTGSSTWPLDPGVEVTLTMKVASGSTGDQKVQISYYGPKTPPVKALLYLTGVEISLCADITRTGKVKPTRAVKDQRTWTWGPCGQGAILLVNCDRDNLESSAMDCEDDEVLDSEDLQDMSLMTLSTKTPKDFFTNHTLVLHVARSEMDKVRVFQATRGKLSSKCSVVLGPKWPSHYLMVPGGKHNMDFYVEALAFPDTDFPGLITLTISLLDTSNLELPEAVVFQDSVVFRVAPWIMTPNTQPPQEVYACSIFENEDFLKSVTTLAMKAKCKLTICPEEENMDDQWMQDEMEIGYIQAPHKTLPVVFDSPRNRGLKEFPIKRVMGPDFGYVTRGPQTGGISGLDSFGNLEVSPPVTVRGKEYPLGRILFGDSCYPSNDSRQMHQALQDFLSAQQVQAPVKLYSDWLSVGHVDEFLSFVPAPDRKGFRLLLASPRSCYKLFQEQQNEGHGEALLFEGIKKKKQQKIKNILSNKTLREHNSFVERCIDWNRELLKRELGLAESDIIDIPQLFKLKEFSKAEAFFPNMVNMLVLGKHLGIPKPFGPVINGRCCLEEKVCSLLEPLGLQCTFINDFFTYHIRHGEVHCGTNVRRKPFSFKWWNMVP
row,Molecule,IC50 [nM]
1,"COc1cc(C(=O)N2C[C@H]3CC[C@@H]2[C@@H]3N)cc2nc3n(c12)CCC(=O)Nc1ccccc1OCCCn1c-3cc2cccnc21 [Example 40, 21-((1R,4R,7R)-7-amino-2-azabicyclo[2.2.1]heptane-2-carbonyl)-19-methoxy-7,8,16,17-tetrahydro-6H-benzo[b]benzo[4,5]imidazo[1,2-h]pyrido[3′,2′:4,5]pyrrolo[2,1-j][1]oxa[4,8,11]triazacyclotetradecin-15(14H)-one]",30
2,"COc1cc(C(=O)N2C[C@H]3CC[C@@H]2[C@@H]3N)cc2nc3n(c12)Cc1cccc(c1)CCCCCCn1c-3cc2cccnc21 [Example 42, ((1R,4R,7R)-7-amino-2-azabicyclo[2.2.1]heptan-2-yl)(27-methoxy-11H,21H-1,2(2,1)-dipyrrolo[2,3-b]pyridina-4(1,3)-benzenacyclodecaphane-25-yl)methanone]",49.7
3,"COc1cc(C(=O)N2C[C@H]3CC[C@@H]2[C@@H]3N)cc2nc3n(c12)Cc1cccc(c1)[C@@H]1CN(C)C[C@@H]1CCCCn1c-3cc2cccnc21 [Example 43, ((1R,4R,7R)-7-amino-2-azabicyclo[2.2.1]heptan-2-yl)((5^3R,5^4R)-2^7-methoxy-5′-methyl-1′H,2^1H-1,2(2,1)-dipyrrolo[2,3-b]pyridina-5(3,4)-pyrrolidina-4(1,3)-benzenacyclononaphane-2^5-yl)methanone]",153
4,"COc1cc(C(=O)N2C[C@H]3CC[C@@H]2[C@@H]3N)cc2nc3n(c12)Cc1cccc(c1)C1[C@@H](CCCCn2c-3cc3cccnc32)C1(F)F (stereo partly drawn) [Example 44, ((1R,4R,7R)-7-amino-2-azabicyclo[2.2.1]heptan-2-yl)((5^1S,5^2R)-5^3,5^3-difluoro-2^7-methoxy-1H,2^1H-1,2(2,1)-dipyrrolo[2,3-b]pyridina-4(1,3)-benzena-5(1,2)-cyclopropanacyclononaphane-2^5-yl)methanone]",216
5,"COc1cc(C(=O)N2C[C@H](N)C[C@@H](F)C2)cc2nc3n(c12)Cc1cccc(c1)/C=C\CCCCn1c-3cc2cccnc21 [Example 51, ((3R,5R)-3-amino-5-fluoropiperidin-1-yl)((Z)-2^7-methoxy-1^1H,2^1H-1,2(2,1)-dipyrrolo[2,3-b]pyridina-4(1,3)-benzenacyclodecaphan-5-en-2^5-yl)methanone]",119
6,"((3R,5R)-3-amino-5- fluoropiperidin-1-yl)((Z)-2^7- methoxy-1^1H,2^1H,4^1H-2(2,1)- benzo[d]imidazola-1(2,1)-indola- 4(4,1)-pyrazolacyclodecaphane- 2^5-yl)methanone [Example 7]",136

# The next molecules have a lower IC50 than those just listed; values first:
row,IC50 [nM],Molecule
1,26,"((1R,4R,7R)-7-amino-2-azabicyclo[2.2.1]heptan-2-yl)((cis)-6,7-dihydroxy-2^7-methoxy-1^1H,2^1H-1,2(2,1)-dipyrrolo[2,3-b]pyridina-4(1,3),5(1,2)-dibenzenacyclononaphane-2^5-yl)methanone [Example 39]"
2,14,"COc1cc(C(=O)N2C[C@H]3CC[C@@H]2[C@@H]3N)cc2nc3n(c12)Cc1cncc(c1)-c1ccccc1CCCCn1c-3cc2ccc(C(C)(C)O)nc21 [Example 53, ((1R,4R,7R)-7-Amino-2-azabicyclo[2.2.1]heptan-2-yl)(1^6-(2-hydroxypropan-2-yl)-2^7-methoxy-1^1H,2^1H-1,2(2,1)-dipyrrolo[2,3-b]pyridina-4(3,5)-pyridina-5(1,2)-benzenacyclononaphane-2^5-yl)methanone]"
3,8,"COc1cc(C(=O)N2C[C@H](N)C[C@@H](F)C2)cc2nc3n(c12)Cc1cncc(c1)-c1ccccc1CCCCn1c-3cc2ccc(C(C)(C)O)nc21 [Example 52, ((3R,5R)-3-Amino-5-fluoropiperidin-1-yl)(1^6-(2-hydroxypropan-2-yl)-2^7-methoxy-1^1H,2^1H-1,2(2,1)-dipyrrolo[2,3-b]pyridina-4(3,5)-pyridina-5(1,2)-benzenacyclononaphane-2^5-yl)methanone]"

# Reference: patent US12492202B2, “Macrocyclic PAD4 inhibitors useful as immunosuppressant” (BRISTOL-MYERS SQUIBB COMPANY, priority 2020, dated 2025)
